Paper PMC4569415, “Pro-Oxidant Activity of Amine-Pyridine-Based Iron Complexes Efficiently Kills Cancer and Cancer Stem-Like Cells” (PLoS ONE, 2015)

Key:
HMLER cells = assay: MTT cytotoxicity assay in non-CS-like parental cells; type: cell-based; details: Homo sapiens, 48 h
Experimental: (§1) The cytotoxic activity of the compounds was determined by MTT reduction assay as described. Compounds were diluted in Milli-Q water to obtain 1 mmol/L stock solutions. Appropriate aliquots of these solutions were diluted in the corresponding cell culture medium to obtain the final working concentrations. Aliquots of 5000 1BR3G cells, 6000 MCF-7, 6000 PC-3 cells, 10 000 CAPAN-1 cells, 4000 MCF 10A cells, 4000 HMLE cells or 4000 CCD-18Co cells were seeded in 96-well plates, 24 h prior to the treatments. Hematological cell lines were seeded at 400 000 cells/mL. Cells were treated with the corresponding compound at concentrations ranging from 0 to 100 μmol/L for 48 h. Three replicates for each compound were used. The IC50 was established for each compound by standard non-linear regression and curve fitting using GraphPad Prism (Graph Pad software Inc., La Jolla, CA, USA).
Fig 2 Cell viability assay. (A) Cytotoxic activity of compounds 1, 2, and 5 against cancer cells. The indicated cell lines were treated for 48 h with ligands (10 μmol/L) and cell viability was measured with the MTT assay. Data represents the percentage of viable cells relative to untreated cells (control). (B) Cytotoxicity of doxorubicin and compounds 1, 2 and 5 against CS-like cells. CS-like HMLER-shEcad cells and non-CS-like HMLER isogenic parental cells were treated for 48 h with graded concentrations of doxorubicin, 1, 2 and 5. Cell viability was measured with the MTT assay. For each treatment, the percentage of viable cells relative to untreated cells is indicated. Data represents the mean±SD of 3 independent experiments performed in triplicate.

[1] = test system: supercoiled pUC18 plasmid DNA; assay: DNA cleavage by agarose gel electrophoresis; type: biochemical; details: 25 μM, 1 h, 37°C
Experimental: DNA cleavage was monitored by agarose gel electrophoresis. A stock solution of pUC18 DNA was freshly prepared in Milli-Q water at a concentration of […] (1512 μmol/L nucleotides; 756 μmol/L bp). Reactions were performed by mixing 0.5 μl of pUC18 with appropriate aliquots of the compounds and 1 μL of activating agent solution (35% wt/vol H2O2 in H2O). Cacodylate buffer (0.1 M, pH 6.0) was added to the mixture to give a final volume of 20 μl. The final concentration of pUC18 DNA was 37.8 μmol/L in nucleotides (18.9 μmol/L bp). Samples were incubated for 1 h at 37°C; reactions were quenched by adding 6 μL of a buffer solution consisting of bromophenol blue (0.25%), xylene cyanol (0.25%), and glycerol (30%). Subsequently, the samples were subjected to electrophoresis in 0.8% agarose gels in 0.5×TBE buffer (0.045 mol/L Tris, 0.045 mol/L boric acid, and 1 mmol/L EDTA) at 100 V for 1 h and 40 min. Gels were stained with ethidium bromide (10 mg/mL in TBE) for 15 min and visualized under UV transillumination. DNA bands were captured using the ProgRes CapturePro 2.7 system and the intensity of each band was quantified with the GelQuant version 2.7 software (DNR Bio-Imaging Systems, Jerusalem, Israel) using a correction factor of 1.31 to compensate for the reduced ethidium bromide uptake of supercoiled plasmid pUC18 DNA [47]. The proportion of different forms of plasmid DNA was established for each treatment. To test the involvement of ROS in strand scission and possible complex–DNA interaction sites, various ROS scavengers and groove binders were added to the reaction mixtures. The scavengers used were Tiron (10 mmol/L), sodium azide (0.4 mol/L), and dimethyl sulfoxide (DMSO, 3 μL). The groove binders used were methyl green (20 mmol/L) and Hoechst (40 μmol/L).

caspase 3/7 = assay: Caspase-Glo 3/7 luminometric assay; type: cell-based; details: 10 μmol/L, 48 h, panel of human cancer cell lines
Experimental: Enzymatic caspase activity was determined after exposing the cells to compound 1, 2 and 5 at 10 μmol/L for 48 h. Caspase 3/7 activity was measured with the luminometric Caspase-Glo 3/7assay (Promega, Madison, WI, USA) using a Synergy HT multi-detection microplate reader (Bio-Tek).

Hemolytic assay = type: cell-based; details: human, erythrocyte suspension of fresh human blood (5% vol/vol)
Experimental: The hemolytic activity of the compounds at 100 μmol/L was evaluated by determining hemoglobin release from erythrocyte suspensions of fresh human blood (5% vol/vol) as described.

PC-3 = assay: MTT cytotoxicity assay; type: cell-based; details: Homo sapiens, 48 h of treatment
Experimental: as §1

1BR3G = assay: MTT cytotoxicity assay; type: cell-based; details: Homo sapiens, 48 h of treatment, non malignant cells
Experimental: as §1

JURKAT = assay: MTT cytotoxicity assay; type: cell-based; details: Homo sapiens, 48 h of treatment
Experimental: as §1

HMLE = assay: MTT cytotoxicity assay; type: cell-based; details: Homo sapiens, 48 h of treatment, non malignant cells
Experimental: as §1

MCF-10A = assay: MTT cytotoxicity assay; type: cell-based; details: Homo sapiens, 48 h of treatment, non malignant cells
Experimental: as §1

Z-138 = assay: MTT cytotoxicity assay; type: cell-based; details: Homo sapiens, 48 h of treatment
Experimental: as §1

CCD-18Co = assay: MTT cytotoxicity assay; type: cell-based; details: Homo sapiens, 48 h of treatment, non malignant cells
Experimental: as §1

CAPAN-1 cells = assay: Cellular labile iron pool with calcein-AM; type: cell-based, human; details: CAPAN-1, 10 μmol/L, 24 h
Experimental: The cellular labile iron pool was determined with calcein-AM. CAPAN-1 cells (125 000 cells/ well) were seeded in 24-well plates and incubated for 24 h. Then, cells were treated for 24 h with 10 μmol/L of compound 1, 2 or 5 at 37°C. In some experiments, cells were incubated for 2 h with 100 μmol/L of DFO or 100 μmol/L FeCl2. Cells exposed to the vehicle alone were used as a control. After treatments, cells were washed with PBS and incubated with calcein-AM (0.25 μmol/L) for 30 min at 37°C in the dark. Subsequently, cells were washed and collected with trypsin and the geometric mean fluorescence intensity of 10 000 cells was determined by flow cytometry as described.

Compound	IC50 (HMLER cells) [µM]	Proportion of plasmid DNA Form I (supercoiled) ([1]; + H2O2) [%]	Proportion of plasmid DNA Form II (open) ([1]; + H2O2) [%]	Proportion of plasmid DNA Form I (supercoiled) ([1]; absence of H2O2) [%]	Proportion of plasmid DNA Form II (open) ([1]; absence of H2O2) [%]	caspase 3/7 activation (caspase 3/7)	hemolysis at 100 µM (Hemolytic assay) [%]	IC50 (PC-3) [µM]	IC50 (1BR3G) [µM]	IC50 (JURKAT) [µM]	IC50 (HMLE) [µM]	IC50 (MCF-10A) [µM]	IC50 (Z-138) [µM]	IC50 (CCD-18Co) [µM]	calcein fluorescence intensity, % of untreated cells (CAPAN-1 cells) [%]
c1ccc(CN2CCC[C@H]2[C@@H]2CCCN2Cc2ccccn2)nc1 [Compound 1]	6.5 ± 0.4	52.8	47.2	84.3	15.7	significant caspase 3/7 activation in lymphoma (Z-138, Jeko-1, Granta and SP-53) but not in leukemia (JURKAT) or glioma (LN229 and U87MG) cell lines	0	8.5 ± 1.4	12.7 ± 1.6	15.1 ± 3.1	6.4 ± 4	18.8 ± 2.9	4.8 ± 1.2	27 ± 4.4	141.4±19.5
CN(C)c1ccnc(CN2CCC[C@H]2[C@@H]2CCCN2Cc2cc(N(C)C)ccn2)c1 [Compound 2]	6.6 ± 0.3	56.8	43.2	91.3	8.7	clearly increased caspase 3/7 activity in all cell lines	0	3.8 ± 0.2	7.5 ± 0.5	7.2 ± 1.9	7 ± 0.3	6.5 ± 1.3	4.4 ± 0.3	20.7 ± 0.3	136.8±11.7
CN1CCN(Cc2ccccn2)CCN(Cc2ccccn2)CC1 [Compound 5]	5.1 ± 0.1	53.3	46.7	92.3	7.7	activating caspase 3/7 in most cell lines except PC-3 cells	0	7.7 ± 0.3	18 ± 4.2	5.4 ± 1.3	6.1 ± 0.1	23.8 ± 1.3	2.9 ± 0.4	53.5 ± 3.5	144.6±13.8
